Measured values reported in patent publication US20190070165A1, “N-HYDROXYISOQUINOLINEDIONE INHIBITORS OF HBV REPLICATION” (Saint Louis University, priority 2016, published 2019).

Experiments:
HBV RNaseH [1] = target: T1, HBV RNaseH (Hepatitis B virus genotype D subtype ayw, UniProt P03156); assay: Molecular beacon RNaseH assay
Target sequence in this assay (P03156 671-832): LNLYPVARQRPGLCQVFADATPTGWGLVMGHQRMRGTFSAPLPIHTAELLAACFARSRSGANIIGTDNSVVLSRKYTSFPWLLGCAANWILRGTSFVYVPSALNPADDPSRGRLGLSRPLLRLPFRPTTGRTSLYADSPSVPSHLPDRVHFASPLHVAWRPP
Procedure: In this assay, a hairpin DNA oligonucleotide labeled with fluorescein on one end and a quencher on the other is held in a linear conformation by annealing to a complementary RNA; cleavage of the RNA causes the DNA to fold into a hairpin, suppressing fluorescence (FIG. 8A).
The substrate is a hairpin DNA oligonucleotide with a 5′ fluorescein reporter and a 3′ black hole quencher annealed to a complementary RNA oligonucleotide. The reaction was initiated by adding 5 mM Mg^++, and fluorescence was monitored at 37° C. with a Synergy 4 96-well plate reader. Inhibition was qualitatively determined as a dose-dependent reduction in the rate of substrate degradation.

HBV RNaseH [2] = target: T1, HBV RNaseH; assay: Detection of capsid-associated RNA:DNA heteroduplexes by Southern analysis; format: cell-based; parameters: expressed in transfected cells; host or cells: HepDES19 (HepG2 with a stably transfected HBV genotype D genome); settings: HepDES19 cells, seven days; #89 at 4×EC50 (10.4 μM), #138 at 30 μM
Procedure: RNA:DNA heteroduplexes migrate as double-stranded products, but degradation of the RNA strand with exogenous RNase causes the DNAs to migrate as single-stranded species. To test for accumulation of RNA:DNA heteroduplexes, HepDES19 cells replicating HBV were treated with 4×EC50 (10.4 μM) of compound #89 and 30 μM compound #138 (negative control). HBV cores were harvested after seven days of compound treatment. Capsid-associated nucleic acids were purified and split into two pools; one pool was treated with RNaseA and the other pool was mock treated.
HepDES19 cells were plated in 100 mm dishes without tetracycline and incubated for 72 hours in the absence of tetracycline before addition of compound #89 at 4×EC50 (10.4 μM) and the negative control compound #138 at 30 μM; compound-containing media was replaced every three days. HBV nucleic acids were purified seven days after compound addition. HBV core particles were isolated by sedimentation through a sucrose cushion as described (Tavis et al., 1998). Cores were treated overnight with proteinase K (0.5 mg/mL) and 1.5% SDS at 37° C. Nucleic acids were purified by phenol-chloroform extraction and ethanol precipitation. The nucleic acids were split into two pools. One pool was treated with RNaseA (1.5 μg/μL) at 37° C. for 30 minutes and the other was mock-treated. […]
Target sequence in this assay (P03156 whole entry): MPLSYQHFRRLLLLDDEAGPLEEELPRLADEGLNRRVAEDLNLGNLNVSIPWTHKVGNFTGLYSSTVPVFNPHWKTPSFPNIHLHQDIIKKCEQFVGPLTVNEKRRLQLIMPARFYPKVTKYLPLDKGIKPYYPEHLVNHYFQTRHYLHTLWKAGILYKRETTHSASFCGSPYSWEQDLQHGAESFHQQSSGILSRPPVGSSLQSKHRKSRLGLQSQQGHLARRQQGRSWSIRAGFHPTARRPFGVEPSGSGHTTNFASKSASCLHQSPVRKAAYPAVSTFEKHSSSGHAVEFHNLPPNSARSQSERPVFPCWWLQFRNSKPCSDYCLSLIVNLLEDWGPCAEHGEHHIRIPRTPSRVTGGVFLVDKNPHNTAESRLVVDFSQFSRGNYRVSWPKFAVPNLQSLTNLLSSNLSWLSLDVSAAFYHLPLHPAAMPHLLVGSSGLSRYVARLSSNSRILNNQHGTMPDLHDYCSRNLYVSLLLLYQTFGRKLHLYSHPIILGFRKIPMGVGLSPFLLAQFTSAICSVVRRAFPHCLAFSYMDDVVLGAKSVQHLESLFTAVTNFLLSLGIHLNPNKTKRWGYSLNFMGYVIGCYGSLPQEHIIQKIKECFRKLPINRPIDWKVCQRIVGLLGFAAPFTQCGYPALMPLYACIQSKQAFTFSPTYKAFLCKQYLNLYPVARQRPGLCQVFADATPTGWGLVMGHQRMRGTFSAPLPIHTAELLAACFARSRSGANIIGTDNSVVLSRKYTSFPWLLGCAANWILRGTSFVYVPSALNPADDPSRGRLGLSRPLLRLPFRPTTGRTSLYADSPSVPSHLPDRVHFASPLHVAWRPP

SMILES: O=C1c2ccccc2C(=O)N1O [Compound 138]
- inhibition in the molecular beacon assay (HBV RNaseH [1]; 2.1 μg purified HBV RNaseH): had no effect on the rate of substrate degradation
- Inhibition of HBV RNaseH, Molecular Beacon cleavage assay (HBV RNaseH [1]; Table 3, 0 to 500 μM): − (No inhibition detected at 500 μM)
- accumulation of RNA:DNA heteroduplexes (HBV RNaseH [2]): unaltered by exogenous RNase treatment
